Laboratory results taken from article PMC8269283 (ACS chemical neuroscience, 2018).
Read-outs that look alike come from different tables or passages of the source.

Assays:
SERT [1] = settings: cited from earlier work
DAT [2] = settings: cited from earlier work
SERT [3] = molecular target: T1, SERT (Rattus norvegicus, UniProt P31652); assay: transporter-mediated release in rat brain synaptosomes, SERT; format: biochemical
DAT [4] = molecular target: T2, DAT (Rattus norvegicus, UniProt P23977); assay: transporter-mediated release in rat brain synaptosomes, DAT; format: biochemical; settings: for DAT vs SERT Selectivity: SERT EC50 ÷ DAT EC50
T2 sequence (P23977 whole entry): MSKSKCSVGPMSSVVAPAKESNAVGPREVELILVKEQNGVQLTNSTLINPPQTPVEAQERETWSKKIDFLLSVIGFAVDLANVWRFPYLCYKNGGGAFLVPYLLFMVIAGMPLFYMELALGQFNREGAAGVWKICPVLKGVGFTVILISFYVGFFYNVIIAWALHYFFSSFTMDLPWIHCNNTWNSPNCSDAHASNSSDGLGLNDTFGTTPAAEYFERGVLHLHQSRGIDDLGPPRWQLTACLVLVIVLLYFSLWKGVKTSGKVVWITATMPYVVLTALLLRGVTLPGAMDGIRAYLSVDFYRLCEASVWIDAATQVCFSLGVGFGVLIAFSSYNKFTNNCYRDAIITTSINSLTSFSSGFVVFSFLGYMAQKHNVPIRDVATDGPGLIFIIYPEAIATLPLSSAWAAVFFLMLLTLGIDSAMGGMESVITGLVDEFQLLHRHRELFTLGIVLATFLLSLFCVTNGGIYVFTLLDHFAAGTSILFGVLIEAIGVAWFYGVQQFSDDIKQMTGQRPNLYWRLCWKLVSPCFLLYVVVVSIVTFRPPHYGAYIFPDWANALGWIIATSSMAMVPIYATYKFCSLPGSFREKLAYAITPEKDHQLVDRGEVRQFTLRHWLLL

NET [5] = molecular target: NET (Rattus norvegicus, UniProt Q63380); settings: read-out: EC50 as NET releasing agent, previously reported; cited from earlier work
Chain of NET (Rattus norvegicus, UniProt Q63380) (Q63380 1-617): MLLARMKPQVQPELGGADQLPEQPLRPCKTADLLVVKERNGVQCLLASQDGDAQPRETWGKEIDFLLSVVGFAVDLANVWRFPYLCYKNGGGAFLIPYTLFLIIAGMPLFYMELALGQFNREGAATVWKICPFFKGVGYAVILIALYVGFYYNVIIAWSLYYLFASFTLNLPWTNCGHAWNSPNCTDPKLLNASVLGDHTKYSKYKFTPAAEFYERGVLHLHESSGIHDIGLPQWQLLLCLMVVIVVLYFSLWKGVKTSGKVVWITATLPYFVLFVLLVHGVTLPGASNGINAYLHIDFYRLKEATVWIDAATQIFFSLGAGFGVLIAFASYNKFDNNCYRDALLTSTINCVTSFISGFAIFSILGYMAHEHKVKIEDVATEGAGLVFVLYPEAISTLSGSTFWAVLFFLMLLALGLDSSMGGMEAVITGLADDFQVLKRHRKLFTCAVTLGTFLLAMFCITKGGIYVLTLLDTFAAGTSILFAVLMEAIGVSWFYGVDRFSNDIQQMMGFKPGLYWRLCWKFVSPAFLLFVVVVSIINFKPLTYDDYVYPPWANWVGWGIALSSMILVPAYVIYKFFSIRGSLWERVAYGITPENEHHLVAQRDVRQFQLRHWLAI

SERT [6] = molecular target: T1, SERT; settings: cited from earlier work
DAT [7] = molecular target: T2, DAT; settings: cited from earlier work
SERT [8] = settings: read-out: IC50 reuptake inhibitor at SERT; cited from earlier work
NET [9] = settings: read-out: IC50 reuptake inhibitor at NET; cited from earlier work
NET [10] = settings: read-out: IC50 reuptake inhibitor at NET; cited from earlier work; remark: listed apart in the source
SERT [11] = settings: read-out: IC50 reuptake inhibitor at SERT; cited from earlier work; remark: listed apart in the source
DAT [12] = settings: read-out: IC50 reuptake inhibitor at DAT; cited from earlier work

T1 sequence (P31652 whole entry): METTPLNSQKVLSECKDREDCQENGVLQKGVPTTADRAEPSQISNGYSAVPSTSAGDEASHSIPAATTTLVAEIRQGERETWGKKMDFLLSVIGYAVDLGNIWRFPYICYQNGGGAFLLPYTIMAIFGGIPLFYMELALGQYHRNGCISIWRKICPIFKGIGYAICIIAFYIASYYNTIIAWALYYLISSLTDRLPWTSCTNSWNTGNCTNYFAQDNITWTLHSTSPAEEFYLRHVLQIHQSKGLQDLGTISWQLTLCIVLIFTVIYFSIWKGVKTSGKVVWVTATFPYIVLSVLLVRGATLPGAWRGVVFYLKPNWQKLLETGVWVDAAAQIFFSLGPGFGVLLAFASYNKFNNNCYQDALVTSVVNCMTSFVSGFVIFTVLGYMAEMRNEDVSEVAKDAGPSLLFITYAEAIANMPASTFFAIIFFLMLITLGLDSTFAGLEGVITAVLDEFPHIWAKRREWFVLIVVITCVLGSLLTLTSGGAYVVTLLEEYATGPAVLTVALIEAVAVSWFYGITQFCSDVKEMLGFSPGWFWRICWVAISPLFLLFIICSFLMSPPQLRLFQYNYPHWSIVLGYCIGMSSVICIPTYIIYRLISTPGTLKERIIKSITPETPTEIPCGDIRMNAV

In the case of CNC(C)C(=O)c1ccccc1C(F)(F)F (stereo not drawn) [2-CF3 analog], the “less potent than 3e as a releasing agent at SERT” value (SERT [1]) is given as over 10 fold and the “less potent than 3e as a releasing agent at DAT” value (DAT [2]) is given as over 10 fold.
With CNC(C)C(=O)c1ccccc1Cl.Cl (stereo not drawn) [2a, 1-(2-Chlorophenyl)-2-(methylamino)propan-1-one Hydrochloride] the EC50 (SERT [3]) was 2810 nM, the EC50 (DAT [4]) was 179 nM and the “DAT vs SERT Selectivity” value (DAT [4]; 2-substituted series) was 16.
In the case of CNC(C)C(=O)c1ccccc1Br.Cl (stereo not drawn) [2b, 1-(2-Bromophenyl)-2-(methylamino)propan-1-one Hydrochloride], the EC50 (SERT [3]) is reported as 2840 nM, the EC50 (DAT [4]) is reported as 650 nM and the “DAT vs SERT Selectivity” value (DAT [4]; 2-substituted series) is reported as 4.
With CNC(C)C(=O)c1ccccc1C.Cl (stereo not drawn) [2c, 2-(Methylamino)-1-(2-methylphenyl)propan-1-one Hydrochloride] the EC50 (SERT [3]) was 490 nM, the EC50 (DAT [4]) was 81 nM and the “DAT vs SERT Selectivity” value (DAT [4]; 2-substituted series) was 6.
For CNC(C)C(=O)c1ccccc1OC.Cl (stereo not drawn) [2d, 1-(2-Methoxyphenyl)-2-(methylamino)propan-1-one Hydrochloride], the EC50 (SERT [3]) was 7220 nM, the EC50 (DAT [4]) was 920 nM and the “DAT vs SERT Selectivity” value (DAT [4]; 2-substituted series) was 8.
In the case of CNC(C)C(=O)c1cccc(Cl)c1 (stereo not drawn) [3a, 3-Chloromethcathinone], the “DAT vs SERT Selectivity” value (DAT [4]; 3-substituted series) is listed as 8, the EC50 (NET [5]) is listed as 40 nM and the EC50 (SERT [6]; read-out: EC50 as SERT releasing agent, previously reported) is listed as 212 nM. For the same molecule, the EC50 (DAT [7]; read-out: EC50 as DAT releasing agent, previously reported) was 29 nM.
In the case of CNC(C)C(=O)c1cccc(Br)c1.Cl (stereo not drawn) [3b, 1-(3-Bromophenyl)-2-(methylamino)propan-1-one Hydrochloride], the EC50 (SERT [3]) is reported as 136 nM, the EC50 (DAT [4]) is reported as 21 nM and the “DAT vs SERT Selectivity” value (DAT [4]; 3-substituted series) is reported as 6. For the same molecule, the IC50 (SERT [8]) was 2000 nM and the IC50 (NET [9]) was 158 nM.
For CNC(C)C(=O)c1cccc(C)c1.Cl (stereo not drawn) [3c, 2-(Methylamino)-1-(3-methylphenyl)propan-1-one Hydrochloride], the IC50 (NET [10]) is listed as 270 nM, the EC50 (SERT [3]) is listed as 268 nM and the EC50 (DAT [4]) is listed as 28 nM. For the same molecule, the “DAT vs SERT Selectivity” value (DAT [4]; 3-substituted series) was 10, the IC50 (SERT [11]) was 9.5 µM and the IC50 (DAT [12]) was 2600 nM.
For CNC(C)C(=O)c1cccc(OC)c1.Cl (stereo not drawn) [3d, 2-(Methylamino)-1-(3-methoxyphenyl)propan-1-one Hydrochloride], the EC50 (SERT [3]) was 683 nM, the EC50 (DAT [4]) was 109 nM and the “DAT vs SERT Selectivity” value (DAT [4]; 3-substituted series) was 6.
With CNC(C)C(=O)c1cccc(C(F)(F)F)c1.Cl (stereo not drawn) [3e, 2-(Methylamino)-1-(3-(trifluoromethyl)phenyl)propan-1-one Hydrochloride] the EC50 (SERT [3]) was 281 nM, the EC50 (DAT [4]) was 714 nM and the “DAT vs SERT Selectivity” value (DAT [4]; 3-substituted series) was 0.4.
In the case of CNC(C)C(=O)c1ccc(C(F)(F)F)cc1 (stereo not drawn) [4e], the “SERT selectivity (SERT vs DAT) as a releasing agent” value (SERT [6]) is listed as 14 fold.
For CNC(C)C(=O)c1ccccc1 (stereo not drawn) [compound 1, Methcathinone], the “DAT vs SERT Selectivity” value (DAT [4]; 2-substituted series) is given as 103, the “DAT vs SERT Selectivity” value (DAT [4]; 3-substituted series) is given as 279 and the “selectivity for DAT vs SERT as a releasing agent” value (DAT [7]) is given as over 300 fold.
